Measurements: patent US9163020B2, “Azaindole compounds, synthesis thereof, and methods of using the same” (Global Alliance for TB Drug Development, priority 2013, dated 2015)
≈ marks a conversion by molar mass, not a printed value. Read-outs that look alike come from different tables or passages of the source.

Tests used:
[1] = tested on: Mycobacterium tuberculosis (Mtb) H37Rv ATCC 27294; test: microbe, parasite or virus in culture; type: cell-based; conditions: read-out: MIC, Mtb H37Rv
[2] = tested on: Mtb DprE1 OE; test: microbe, parasite or virus in culture; type: cell-based, Mycobacterium tuberculosis
[3] = tested on: Mtb DprE1 C387S; type: cell-based, Mycobacterium tuberculosis
[4] = tested on: Mtb DprE1 C387G; type: cell-based, Mycobacterium tuberculosis
[5] = tested on: Mtb DprE1 Y314H; type: cell-based, Mycobacterium tuberculosis
[6] = Mycobacterium tuberculosis, DPRE1OE, read-out: MIC, Mtb DprE1 OE
[7] = Mycobacterium tuberculosis, DPRE1OE, Table 5, read-out: Mtb DprE1 OE MIC

Row | Compound | MIC [1] | MIC [2, 6] | MIC, Mtb DprE1 C387S [3] | MIC, Mtb DprE1 C387G [4] | MIC, Mtb DprE1 Y314H [5] | cross-resistance to mutant strain (Tyr314His) [5] | MIC ([1]; Mycobacterium tuberculosis) | MIC [2, 7] | Mtb DprE1 C387S [3] | Mtb DprE1 C387G MIC [4] | Mtb DprE1 Y314H MIC [5] | MIC ([2]; read-out: MIC, Mtb DprE1 OE)
1 | C[C@H]1COC2(CCN(c3nc(=O)c4cc(C(F)(F)F)cc([N+](=O)[O-])c4s3)CC2)O1 [BTZ043] | 0.003 µM (≈ 0.00129 µg/mL) | 50 µM (≈ 21.6 µg/mL) | >0.1 µM | >0.1 µM | 0.0015 to 0.003 µM | resistance was not observed |  |  |  |  |  | 
2 | COc1ncnc(Cn2cc(C(=O)NCCF)c3ncccc32)c1C [Compound 3, N-(2-fluoroethyl)-1-((6-methoxy-5-methylpyrimidin-4-yl)methyl)-1H-pyrrolo[3,2-b]pyridine-3-carboxamide] | 3.12 µM (≈ 1.07 µg/mL) | 50 µM (≈ 17.2 µg/mL) | 3.12 µM (≈ 1.07 µg/mL) | 0.78 µM (≈ 0.268 µg/mL) | >100 µM |  |  |  |  |  |  | 
3 | COc1ncnc(Cn2cc(C(=O)NCCF)c3ncc(C)cc32)c1C [Compound 8, N-(2-fluoroethyl)-1-((6-methoxy-5-methylpyrimidin-4-yl)methyl)-6-methyl-1H-pyrrolo[3,2-b]pyridine-3-carboxamide] |  | 6.25 µM (≈ 2.23 µg/mL) | 0.39 µM (≈ 0.139 µg/mL) | 0.39 µM (≈ 0.139 µg/mL) | >200 µM |  | 0.39 µM (≈ 0.139 µg/mL) |  |  |  |  | 
4 | COc1ncnc(Cn2cc(C(=O)NCCO)c3ncc(C)cc32)c1C [Compound 17, N-(2-hydroxyethyl)-1-((6-methoxy-5-methylpyrimidin-4-yl)methyl)-6-methyl-1H-pyrrolo[3,2-b]pyridine-3-carboxamide] |  | 100 µM (≈ 35.5 µg/mL) | 0.39 µM (≈ 0.139 µg/mL) | 0.78 µM (≈ 0.277 µg/mL) | >200 µM |  | 1.56 µM (≈ 0.554 µg/mL) |  |  |  |  | 
5 | Cc1ccc(Cn2cc(C(=O)NCCF)c3ncccc32)c(C)c1 [Compound 31, 1-(2,4-dimethylbenzyl)-N-(2-fluoroethyl)-1H-pyrrolo[3,2-b]pyridine-3-carboxamide] |  |  |  |  |  |  |  | 25 µM (≈ 8.13 µg/mL) | 0.78 µM | 0.78 µM | 25 µM | 
6 | COc1cccc(F)c1Cn1cc(C(=O)NCC2CC2)c2ncccc21 [Compound 32, N-(cyclopropylmethyl)-1-(2-fluoro-6-methoxybenzyl)-1H-pyrrolo[3,2-b]pyridine-3-carboxamide] |  |  |  |  |  |  |  | 50 µM (≈ 17.7 µg/mL) | 0.39 µM | 0.39 µM | 200 µM | 
7 | CC[C@@H](CO)NCCN[C@@H](CC)CO [Ethambutol] |  | 2 µM (≈ 0.409 µg/mL) | 2 µM (≈ 0.409 µg/mL) | 4 µM (≈ 0.817 µg/mL) | 2.0 to 4.0 µM |  | 2 µM (≈ 0.409 µg/mL) |  |  |  |  | 
8 | NNC(=O)c1ccncc1 [Isoniazid] |  | 0.03 µM (≈ 0.00411 µg/mL) | 0.06 µM (≈ 0.00823 µg/mL) | 0.06 µM (≈ 0.00823 µg/mL) | 0.06 µM (≈ 0.00823 µg/mL) |  | 0.06 µM (≈ 0.00823 µg/mL) |  |  |  |  | 
9 | COc1c(N2C[C@@H]3CCCN[C@@H]3C2)c(F)cc2c(=O)c(C(=O)O)cn(C3CC3)c12 [Moxifloxacin, reference compound] |  | 0.06 µM (≈ 0.0241 µg/mL) |  |  |  |  | 0.125 µM (≈ 0.0502 µg/mL) |  |  |  |  | 
10 | CC1COc2c(N3CCN(C)CC3)c(F)cc3c(=O)c(C(=O)O)cn1c23 (centres unmarked) [Ofloxacin, reference compound] |  | 0.5 µM (≈ 0.181 µg/mL) |  |  |  |  | 1 µM (≈ 0.361 µg/mL) |  |  |  |  | 
11 | CO[C@H]1/C=C/O[C@@]2(C)Oc3c(C)c(O)c4c(O)c(c(/C=N/N5CCN(C)CC5)c(O)c4c3C2=O)NC(=O)/C(C)=C\C=C\[C@H](C)[C@H](O)[C@@H](C)[C@@H](O)[C@@H](C)[C@H](OC(C)=O)[C@@H]1C [Rifampicin] |  | 0.003 µM (≈ 0.00247 µg/mL) |  |  |  |  |  |  |  |  |  | 
12 | COc1nc2ccc(Br)cc2cc1[C@@H](c1ccccc1)[C@@](O)(CCN(C)C)c1cccc2ccccc12 [TMC207] |  | 0.15 µM (≈ 0.0833 µg/mL) | 0.3 µM (≈ 0.167 µg/mL) | 0.15 µM (≈ 0.0833 µg/mL) | 0.15 to 0.3 µM |  | 0.6 µM (≈ 0.333 µg/mL) |  |  |  |  | 
13 | Clofazimine | 0.125 µM |  | 0.03 µM | 0.03 µM | 0.125 µM |  |  |  |  |  |  | 0.06 µM
14 | D-cycloserine | 8 µM |  | 8 µM | 8 µM | 8.0 to 16.0 µM |  |  |  |  |  |  | 8 µM
